According to patent US12336981B2, “Compounds and compositions for the inhibition of NAMPT” (Valo Health, Inc., priority 2010, dated 2025):
Read-outs that look alike come from different tables or passages of the source.

How the values were obtained:
A2780 cells = assay: In-vitro cell proliferation assay (SRB), A2780 cells; assay type: cell-based; details: Homo sapiens, A2780, 72 h, A2780 cells, 72 hours, read-out: A2780 IC50
How it was run: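 Read-out is SRB absorbance at 570 nm on TCA-fixed cells after 72 hours of compound treatment at 37° C. in 5% CO2. Background from a media-only plate is subtracted, and % inhibition is interpolated between two tested concentrations.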

NAMPT = biological target: T1, NAMPT (Homo sapiens, UniProt P43490); assay: Biochemical inhibition assay: NAMPT enzymatic reaction, NMN quantified by mass spectrometry; details: read-out: Biochem IC50
T1 construct: His tag; host or cells: E. coli
How it was run: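 Inhibition of E. coli-expressed His-tagged human NAMPT, measured as NMN formation by mass spectrometry after a 30 min room-temperature reaction containing 1 μM NAM, 100 μM PRPP and 2.5 mM ATP.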

T1 sequence (P43490 whole entry): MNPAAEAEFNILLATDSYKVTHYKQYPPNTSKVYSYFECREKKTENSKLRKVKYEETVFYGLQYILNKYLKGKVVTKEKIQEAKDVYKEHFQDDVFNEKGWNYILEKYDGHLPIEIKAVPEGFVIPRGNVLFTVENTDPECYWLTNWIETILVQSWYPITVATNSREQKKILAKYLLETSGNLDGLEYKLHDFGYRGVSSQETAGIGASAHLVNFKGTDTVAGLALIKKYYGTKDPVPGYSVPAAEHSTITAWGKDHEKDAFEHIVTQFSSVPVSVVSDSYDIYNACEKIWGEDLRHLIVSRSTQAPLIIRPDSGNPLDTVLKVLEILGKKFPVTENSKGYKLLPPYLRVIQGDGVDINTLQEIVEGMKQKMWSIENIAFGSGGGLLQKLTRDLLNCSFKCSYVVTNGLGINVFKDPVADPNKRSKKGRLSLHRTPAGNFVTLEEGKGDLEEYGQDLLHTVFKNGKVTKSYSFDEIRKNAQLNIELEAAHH

Structure (SMILES)	IC50 (A2780 cells; SRB) [nM]	IC50 (NAMPT; NAMPT enzymatic assay) [nM]	IC50 (NAMPT; NAMPT enzymatic reaction) [nM]	IC50 (A2780 cells; SRB assay) [nM]
O=C(NCc1ccc(S(=O)(=O)c2cncc(N3CCCC3)c2)cc1)c1ccc2nccn2c1 [N-({4-[5-(pyrrolidin-1-yl)pyridine-3-sulfonyl]phenyl}methyl)imidazo[1,2-a]pyridine-6-carboxamide]	0.5	4		
O=C(NCc1ccc(S(=O)(=O)c2ccc(Cl)c(Cl)c2)cc1)c1cc2ccncc2o1	4.8		10.4	
O=C(NCc1ccc(S(=O)(=O)c2ccc(C(F)(F)F)cc2Cl)cc1)c1cnc2nccn2c1	64.4	18.4		
O=C(NCc1ccc(S(=O)(=O)c2cccc3cccnc23)cc1)c1cc2ccncc2s1 [N-{[4-(quinoline-8-sulfonyl)phenyl]methyl}thieno[2,3-c]pyridine-2-carboxamide]			6	2.5
CCS(=O)(=O)c1cccc(S(=O)(=O)c2ccc(CNC(=O)c3cc4cnccc4[nH]3)cc2)c1 [N-[(4-{[3-(ethanesulfonyl)benzene]sulfonyl}phenyl)methyl]-1H-pyrrolo[3,2-c]pyridine-2-carboxamide]	15.5	17		
CC(C)COc1cccc(S(=O)(=O)c2ccc(CNC(=O)c3ccc4nccn4c3)cc2)c1	10.6	15.7		
CNS(=O)(=O)c1ccccc1S(=O)(=O)c1ccc(CNC(=O)c2cc3cnccc3[nH]2)cc1 [N-[(4-{[2-(methylsulfamoyl)benzene]sulfonyl}phenyl)methyl]-1H-pyrrolo[3,2-c]pyridine-2-carboxamide]			76	202
CCOc1cccc(S(=O)(=O)c2ccc(CNC(=O)c3cnc4nccn4c3)cc2)c1	6.7		2.1	
CN1CCN(c2ccc(S(=O)(=O)c3ccc(CNC(=O)c4cc5ccncc5o4)cc3)cc2)CC1	0.5	1		
CCOc1ccc(S(=O)(=O)c2ccc(CNC(=O)c3ccc4nccn4c3)cc2)c(C)c1	11.1		6.6	
O=C(NCc1ccc(S(=O)(=O)c2cc(Cl)cc(C(F)(F)F)c2)cc1)c1cnc2nccn2c1	0.4	4.4		
Cc1ccc(S(=O)(=O)c2ccc(CNC(=O)c3cc4ccncc4s3)cc2)c(F)c1 [N-({4-[(2-fluoro-4-methylbenzene)sulfonyl]phenyl}methyl)thieno[2,3-c]pyridine-2-carboxamide]			8	20.7
COc1c(F)cccc1S(=O)(=O)c1ccc(CNC(=O)c2cc3ccncc3o2)cc1	30.9		16.6	
O=C(NCc1ccc(S(=O)(=O)c2cccc(N3CCCC3)c2)cc1)c1cc2cnccc2[nH]1	2.8	13.4		
Cc1ccc(S(=O)(=O)c2ccc(CNC(=O)c3cc4cnccc4[nH]3)cc2)c(C)c1 [N-({4-[(2,4-dimethylbenzene)sulfonyl]phenyl}methyl)-1H-pyrrolo[3,2-c]pyridine-2-carboxamide]	12	21		
O=C(NCc1ccc(S(=O)(=O)c2ccc(C(F)(F)F)cc2)cc1)c1cc2ccncc2o1	19.8	8.7		
CCOc1ccc(-c2ccc(S(=O)(=O)c3ccc(CNC(=O)c4cc5cnccc5[nH]4)cc3)cc2)cc1 [N-[(4-{[4-(4-ethoxyphenyl)benzene]sulfonyl}phenyl)methyl]-1H-pyrrolo[3,2-c]pyridine-2-carboxamide]	9	9		
COc1ccc(OC(F)(F)F)cc1S(=O)(=O)c1ccc(CNC(=O)c2cnc3nccn3c2)cc1	5.8	< 0.65		

Structure (SMILES)	IC50 (A2780 cells; SRB) [nM]	IC50 (NAMPT; NAMPT enzymatic assay) [nM]	IC50 (NAMPT; NAMPT enzymatic reaction) [nM]	IC50 (A2780 cells; SRB assay) [nM]
O=C(NCc1ccc(S(=O)(=O)c2cccnc2)cc1)c1cc2ccncc2o1 [N-{[4-(pyridine-3-sulfonyl)phenyl]methyl}furo[2,3-c]pyridine-2-carboxamide]	66.4	9		
CCCOc1ccc(Cl)cc1S(=O)(=O)c1ccc(CNC(=O)c2cc3ccncc3o2)cc1	9.3		8	
CCCCOc1cccc(S(=O)(=O)c2ccc(CNC(=O)c3cc4ccncc4o3)cc2)c1 [N-({4-[(3-butoxybenzene)sulfonyl]phenyl}methyl)furo[2,3-c]pyridine-2-carboxamide]	69.5		12.3	
O=C(NCc1ccc(S(=O)(=O)c2ccccc2)cc1)c1ccc2scnc2c1 [N-(4-(phenylsulfonyl)benzyl)benzo[d]thiazole-5-carboxamide]			47	3870
CC(C)NC(=O)c1cc(S(=O)(=O)c2ccc(CNC(=O)c3cnc4[nH]ncc4c3)cc2)ccc1F [N-{[4-({4-fluoro-3-[(propan-2-yl)carbamoyl]benzene}sulfonyl)phenyl]methyl}-1H-pyrazolo[3,4-b]pyridine-5-carboxamide]	63.1	85.2		
N#Cc1ccccc1S(=O)(=O)c1ccc(CNC(=O)c2cc3ccncc3s2)cc1 [N-({4-[(2-cyanobenzene)sulfonyl]phenyl}methyl)thieno[2,3-c]pyridine-2-carboxamide]	67.6		14.6	
CNC(=O)c1cccc(S(=O)(=O)c2ccc(CNC(=O)c3cc4ccncc4o3)cc2)c1	14.3	8.1		
O=C(NCc1ccc(S(=O)(=O)c2ccc3ncccc3c2)cc1)c1ccc2nccn2c1 [N-{[4-(quinoline-6-sulfonyl)phenyl]methyl}imidazo[1,2-a]pyridine-6-carboxamide]	0.83	5.16		
CCN(CC)C(=O)c1cc(F)cc(S(=O)(=O)c2ccc(CNC(=O)c3cc4ccncc4o3)cc2)c1	3.8	10.3		
O=C(NCc1ccc(S(=O)(=O)c2cnn(-c3cccc(Cl)c3)c2)cc1)c1cnc2[nH]ncc2c1 [N-({4-[1-(3-chlorophenyl)-1H-pyrazole-4-sulfonyl]phenyl}methyl)-1H-pyrazolo[3,4-b]pyridine-5-carboxamide]	55.6	28.2		
Cc1ccc(S(=O)(=O)c2ccc(CNC(=O)c3cc4ccncc4o3)cc2)cc1C	3		15	
O=C(NCc1ccc(S(=O)(=O)c2ccco2)cc1)c1ccc2nccn2c1 [N-{[4-(furan-2-sulfonyl)phenyl]methyl}imidazo[1,2-a]pyridine-6-carboxamide]	100 to 1000	76.2		
O=C(NCc1ccc(S(=O)(=O)c2cccc3c2OCC3)cc1)c1cc2ccncc2o1 [N-{[4-(2,3-dihydro-1-benzofuran-7-sulfonyl)phenyl]methyl}furo[2,3-c]pyridine-2-carboxamide]	7.1	6		
O=C(NCc1ccc(S(=O)(=O)c2cccc(-c3ccccc3)c2)cc1)c1cnc2nccn2c1	3.3		0.9	
Cc1ccc(S(=O)(=O)c2ccc(CNC(=O)c3cc4ccncc4o3)cc2)cc1 [N-({4-[(4-methylbenzene)sulfonyl]phenyl}methyl)furo[2,3-c]pyridine-2-carboxamide]	6		121	
CCCCOc1cccc(S(=O)(=O)c2ccc(CNC(=O)c3cnc4[nH]ncc4c3)cc2)c1 [N-({4-[(3-butoxybenzene)sulfonyl]phenyl}methyl)-1H-pyrazolo[3,4-b]pyridine-5-carboxamide]	67.5		38.4	
CCCOc1cccc(S(=O)(=O)c2ccc(CNC(=O)c3cc4cnccc4[nH]3)cc2)c1	12.2		10.2	
Cc1ccc(S(=O)(=O)c2ccc(CNC(=O)c3cnc4[nH]ncc4c3)cc2)cn1 [N-{[4-(6-methylpyridine-3-sulfonyl)phenyl]methyl}-1H-pyrazolo[3,4-b]pyridine-5-carboxamide]	21.3	24.1		
